Reference: patent US20050059719A1 (priority 2003, published 2005)

Details: pH 5.5
Method: The fraction of the dose precipitating in the form of free base during dissolution is dependent on experimental factors such as stirring speed, which determines mixing kinetics of the highly supersaturated microenvironment solution into the bulk of the dissolution medium.
The dissolution studies were conducted using USP apparatus 2 in acetate buffer, pH 5.5 and 37° C.
The pH of the dissolution medium remained substantially constant at ˜5.5 until the end of the test.

concentration in the dissolution medium relative to saturation solubility at this pH: ~10 fold
Structure (SMILES): CN(C)Cc1nccn1-c1ccc(NC(=O)c2cc(C(F)(F)F)nn2-c2ccc3onc(N)c3c2)c(F)c1.Cl [Factor Xa inhibitor]
